These results are taken from ChEMBL document CHEMBL1122541, “Peptide sweeteners. 7. Taste relationships of trifluoroacetyl-L-aspartylanilides” (J Med Chem, 1984).

SMILES strings stand for the structures.

A short description of assay [1]: Compound taste was tested with reference of sucrose sweetness; - = Bitter.
A short description of assay [2]: Value represents the number of times the compound was as sweet as sucrose.
The nature of assay [3]: compound taste was tested with reference of sucrose sweetness; - = bitter.
Assay [4] can be described thus: Value represents the number of times the compound was as sweet as sucrose.
Assay [5] in a line: compound taste was tested with reference of sucrose sweetness; + / - - = sweet / bitter.
Assay [6] in a line: Compound taste was tested with reference of sucrose sweetness; +/- = Sweet/bitter.
The nature of assay [7]: Compound taste was tested with reference of sucrose sweetness; + / - = Sweet/bitter.
Assay [8] can be described thus: Compound taste was tested with reference of sucrose sweetness; + / - = Sweet/ bitter.
Assay [9] is described as follows: Compound taste was tested with reference of sucrose sweetness; + / - - = Sweet/very bitter.
Assay [10] can be described thus: Compound taste was tested with reference of sucrose sweetness; +/ - - = Sweet/ very bitter.
A short description of assay [11]: Value represents the number of times the compound was as sweet as sucrose; +/- - - = Sweet/ very bitter.

On to `N#Cc1ccccc1NC(=O)C(CC(=O)O)NC(=O)C(F)(F)F` (centres undefined), for which the Taste result in [1] is listed as “Bitter”.
For the compound `O=C(O)CC(NC(=O)C(F)(F)F)C(=O)Nc1ccccc1` (centres undefined), the Taste in [2] worked out at 12.
On to `O=C(O)CC(NC(=O)C(F)(F)F)C(=O)Nc1ccccc1[N+](=O)[O-]` (centres undefined), for which, in assay [3], the Taste result is “Bitter”.
With `O=C(O)CC(NC(=O)C(F)(F)F)C(=O)Nc1ccc([N+](=O)[O-])cc1` (centres undefined), the Taste in assay [4] was 1500.
For the compound `Cc1cc([N+](=O)[O-])ccc1NC(=O)C(CC(=O)O)NC(=O)C(F)(F)F` (centres undefined), the Taste entry in assay [5] is “+ / - -”.
Turning to `N#Cc1cccc(NC(=O)C(CC(=O)O)NC(=O)C(F)(F)F)c1` (centres undefined), in [6], the Taste result is recorded as “+/-”.
As for `O=C(O)CC(NC(=O)C(F)(F)F)C(=O)Nc1cccc(Cl)c1` (centres undefined), in assay [7], the Taste entry is reported as “+ / -”.
With `O=C(O)CC(NC(=O)C(F)(F)F)C(=O)Nc1ccccc1Cl` (centres undefined), in assay [1], the Taste result is listed as “Bitter”.
In turn, `N#Cc1ccc(NC(=O)C(CC(=O)O)NC(=O)C(F)(F)F)cc1` (centres undefined) came in with a Taste in assay [2] of 3000.
On to `Cc1cccc(NC(=O)C(CC(=O)O)NC(=O)C(F)(F)F)c1` (centres undefined), for which, in [8], the Taste entry is reported as “+ / -”.
`Cc1cc(NC(=O)C(CC(=O)O)NC(=O)C(F)(F)F)ccc1[N+](=O)[O-]` (centres undefined): the Taste result in assay [9] is reported as “+ / - -”.
For the compound `O=C(O)CC(NC(=O)C(F)(F)F)C(=O)Nc1ccc([N+](=O)[O-])c([N+](=O)[O-])c1` (centres undefined), the Taste result in assay [10] was “+ / - -”.
`O=C(O)CC(NC(=O)C(F)(F)F)C(=O)Nc1cccc([N+](=O)[O-])c1` (centres undefined): in [11], the Taste result was “+/- - -”.
Compound `O=C(O)CC(NC(=O)C(F)(F)F)C(=O)Nc1ccc(Cl)cc1` (centres undefined) came in with a Taste in assay [2] of 120.
